Test results from patent US20250205186A1, “USE OF CHLOROGENIC ACID IN PREPARING MEDICINE OR PHARMACEUTICAL COMPOSITION FOR PREVENTING OR TREATING PAIN” (SICHUAN JIUZHANG BIOLOGICAL SCIENCE AND TECHNOLOGY CO., LTD., priority 2019, published 2025).

Tests used:
[1] = tested on: IL-6; experiment: Serum IL-6 content by ELISA in bone cancer pain rats; assay type: in vivo, rat; details: for Cytokines IL-6 content in serum: after 15 days of administration; for Serum level of IL-6 compared with the model-negative group: after 15 days
Description: (§1) 60 SD rats were randomly selected, and after anesthesia, a small 1 cm incision was made in the upper tibial skin. A 10 mL syringe needle was used to puncture and perforate, then a 10 μL syringe was inserted into the bone marrow cavity, and 3 μL cell suspension containing 3×10^3 Walker rat breast cancer cells was slowly injected. The pinhole was sealed with bone wax, and the skin was sutured. After surgery, the rats were placed on a 37° C. hot plate for rewarming. After recovery, rats were returned to the cage for further breeding, to obtain the model group. In addition, 8 SD rats were randomly selected, and an equal volume of PBS solution was injected into the marrow cavity of the left upper tibia. The rest of the operations were the same as the model group, to obtain the sham operation group. The rats that had been successfully modeled were randomly divided into groups, eight rats for each group, that included high-dose chlorogenic acid group (80 mg/kg), middle-dose chlorogenic acid group (40 mg/kg), low-dose chlorogenic acid group (20 mg/kg), model negative group (N.S normal saline), and sham operation group (N.S normal saline). The rats were intraperitoneally injected with drugs for 15 days in a volume of 0.2 mL/10 g, once a day; the model-negative group and the sham operation group were given the same volume of normal saline. After the last administration, blood was collected from the eyeballs of the rats, and the animals in each group were sacrificed by neck removal. The blood samples were allowed to stand at room temperature for 20 minutes and then centrifuged. The supernatant was collected and the contents of TNF-α, IL-1β, and IL-6 in the peripheral blood serum of the […] were determined by ELISA.

[2] = tested on: bone cancer pain in rats (Walker rat breast cancer cells, tibia implant model); experiment: Radiant heat pain response (pain threshold) in rat tibia implant bone cancer pain model; assay type: in vivo; details: for Radiant heat pain threshold compared with the model group: from 7 days after administration, p<0.05
Description: After two SD female rats were intraperitoneally injected with 0.5 mL cancer cells (4×10^4 cells/μL), ascites was collected on the 7th day, and the cells are rinsed 3 times with sterile 0.01 mol/L PBS to adjust to the concentration of 4×10^3 cells/μL for use. 60 SD rats were randomly selected, and after anesthesia, a small 1 cm incision was made in the upper tibial skin. A 10 mL syringe needle was used to puncture and perforate, then a 10 μL syringe was inserted into the bone marrow cavity, and 3 μL cell suspension containing 3×10^3 Walker rat breast cancer cells was slowly injected. The pinhole was sealed with bone wax, and the skin was sutured. After surgery, the rats were placed on a 37° C. hot plate for rewarming. After recovery, rats were returned to the cage for further breeding, to obtain the model group. In addition, 8 SD rats were randomly selected, and an equal volume of PBS solution was injected into the marrow cavity of the left upper tibia. The rest of the operations were the same as the model group, to obtain the sham operation group. Radiation thermal pain response: the rat was placed on a glass plate, and the affected side of the foot was irradiated with a heat radiator. The plantar side of each rat would be tested 3 times at an interval of 5 min. The response time from exposure to paw withdrawal was recorded, and the time to retract the paw was the pain threshold. […] The rats that had been successfully modeled were randomly divided into groups, eight rats for each group, that included high-dose chlorogenic acid group (80 mg/kg), middle-dose chlorogenic acid group (40 mg/kg), low-dose chlorogenic acid group (20 mg/kg), model negative group (N.S normal saline), and sham operation group (N.S normal saline). The rats were intraperitoneally injected with drugs for 15 days in a volume of 0.2 mL/10 g, once a day; the model-negative group and the sham operation group were given the same volume of normal saline. From the second day after administration, the mechanical pain hypersensitivity and radiation thermal pain were investigated before each administration, and the paw withdrawal threshold and the pain threshold were recorded.

[3] = tested on: TNF-α; experiment: Serum TNF-α content by ELISA in bone cancer pain rats; assay type: in vivo, rat; details: for Cytokines TNF-α content in serum: after 15 days of administration; for Serum level of TNF-α compared with the model-negative group: after 15 days
Description: as §1

In the case of O=C(/C=C/c1ccc(O)c(O)c1)O[C@@H]1C[C@](O)(C(=O)O)C[C@@H](O)[C@H]1O [Chlorogenic acid], the “Cytokines IL-6 content in serum” value ([1]; 20 mg/kg ip once a day) is reported as 84.09 ± 5.16 ng/L, the “Serum level of IL-6 compared with the model-negative group” value ([1]; 20 mg/kg, p<0.05) is reported as “lower than those in the model-negative group” and the “Cytokines IL-6 content in serum” value ([1]; 40 mg/kg ip once a day) is reported as 78.73 ± 6.39 ng/L. For the same compound, the “Serum level of IL-6 compared with the model-negative group” value ([1]; 40 mg/kg, p<0.05) was “lower than those in the model-negative group”, the “Cytokines IL-6 content in serum” value ([1]; 80 mg/kg ip once a day) was 98.82 ± 4.54 ng/L and the “Serum level of IL-6 compared with the model-negative group” value ([1]; 80 mg/kg) was “the difference was not significant”. The Pain threshold ([2]; 20 mg/kg ip once a day, 2 d) was 3.86 s, the Pain threshold ([2]; 20 mg/kg ip once a day, 3 d) was 4.11 s and the Pain threshold ([2]; 20 mg/kg ip once a day, 4 d) was 3.93 s. It also gave a Pain threshold ([2]; 20 mg/kg ip once a day, 5 d) of 9.53 s, a Pain threshold ([2]; 20 mg/kg ip once a day, 6 d) of 16.66 s and a Pain threshold ([2]; 20 mg/kg ip once a day, 7 d) of 17.89 s. The Pain threshold ([2]; 20 mg/kg ip once a day, 8 d) was 16.72 s, the Pain threshold ([2]; 20 mg/kg ip once a day, 9 d) was 15.45 s and the Pain threshold ([2]; 20 mg/kg ip once a day, 10 d) was 16.74 s. For the same compound, the Pain threshold ([2]; 20 mg/kg ip once a day, 11 d) was 15.52 s, the Pain threshold ([2]; 20 mg/kg ip once a day, 12 d) was 15.97 s and the Pain threshold ([2]; 20 mg/kg ip once a day, 13 d) was 16.35 s. The Pain threshold ([2]; 20 mg/kg ip once a day, 14 d) was 16.22 s, the Pain threshold ([2]; 20 mg/kg ip once a day, 15 d) was 16.75 s and the “Radiant heat pain threshold compared with the model group” value ([2]; 20 mg/kg) was “significant difference”. For the same compound, the Pain threshold ([2]; 40 mg/kg ip once a day, 2 d) was 3.62 s, the Pain threshold ([2]; 40 mg/kg ip once a day, 3 d) was 3.52 s and the Pain threshold ([2]; 40 mg/kg ip once a day, 4 d) was 6.36 s. It also gave a Pain threshold ([2]; 40 mg/kg ip once a day, 5 d) of 12.52 s, a Pain threshold ([2]; 40 mg/kg ip once a day, 6 d) of 20.53 s and a Pain threshold ([2]; 40 mg/kg ip once a day, 7 d) of 20.49 s. For the same compound, the Pain threshold ([2]; 40 mg/kg ip once a day, 8 d) was 19.83 s, the Pain threshold ([2]; 40 mg/kg ip once a day, 9 d) was 21.21 s and the Pain threshold ([2]; 40 mg/kg ip once a day, 10 d) was 24.32 s. The Pain threshold ([2]; 40 mg/kg ip once a day, 11 d) was 20.59 s, the Pain threshold ([2]; 40 mg/kg ip once a day, 12 d) was 21.41 s and the Pain threshold ([2]; 40 mg/kg ip once a day, 13 d) was 22.39 s. For the same compound, the Pain threshold ([2]; 40 mg/kg ip once a day, 14 d) was 21.74 s, the Pain threshold ([2]; 40 mg/kg ip once a day, 15 d) was 20.88 s and the “Radiant heat pain threshold compared with the model group” value ([2]; 40 mg/kg) was “significant difference”. For the same compound, the Pain threshold ([2]; 80 mg/kg ip once a day, 2 d) was 4.17 s, the Pain threshold ([2]; 80 mg/kg ip once a day, 3 d) was 4.24 s and the Pain threshold ([2]; 80 mg/kg ip once a day, 4 d) was 4.09 s. For the same compound, the Pain threshold ([2]; 80 mg/kg ip once a day, 5 d) was 5.52 s, the Pain threshold ([2]; 80 mg/kg ip once a day, 6 d) was 8.15 s and the Pain threshold ([2]; 80 mg/kg ip once a day, 7 d) was 8.22 s. It also gave a Pain threshold ([2]; 80 mg/kg ip once a day, 8 d) of 7.98 s, a Pain threshold ([2]; 80 mg/kg ip once a day, 9 d) of 7.59 s and a Pain threshold ([2]; 80 mg/kg ip once a day, 10 d) of 8.03 s. It also gave a Pain threshold ([2]; 80 mg/kg ip once a day, 11 d) of 8.05 s, a Pain threshold ([2]; 80 mg/kg ip once a day, 12 d) of 7.76 s and a Pain threshold ([2]; 80 mg/kg ip once a day, 13 d) of 7.98 s. For the same compound, the Pain threshold ([2]; 80 mg/kg ip once a day, 14 d) was 8.52 s, the Pain threshold ([2]; 80 mg/kg ip once a day, 15 d) was 8.38 s and the “Threshold compared with the model group (radiant heat pain section)” value ([2]; 80 mg/kg, p>0.05) was “not statistically significant”. The “Cytokines TNF-α content in serum” value ([3]; 20 mg/kg ip once a day) was 39.74 ± 6.04 ng/L, the “Serum level of TNF-α compared with the model-negative group” value ([3]; 20 mg/kg, p<0.05) was “lower than those in the model-negative group” and the “Cytokines TNF-α content in serum” value ([3]; 40 mg/kg ip once a day) was 35.25 ± 4.62 ng/L. The “Serum level of TNF-α compared with the model-negative group” value ([3]; 40 mg/kg, p<0.05) was “lower than those in the model-negative group”, the “Cytokines TNF-α content in serum” value ([3]; 80 mg/kg ip once a day) was 54.48 ± 5.99 ng/L and the “Serum level of TNF-α compared with the model-negative group” value ([3]; 80 mg/kg) was “the difference was not significant”.
